Measurements: DBAASP
≈ marks a conversion by molar mass, not a printed value. Where “and” joins values, the source holds several entries; their conditions need not be identical. Identical values can stand only once.

Legend:
Assay in all cases: ≥ marks a high value that may be exact or a test limit, other limits are often not marked, values filed in µg/mL are converted to µM
[1] = test system: Bacillus subtilis ATCC 62037
[2] = test system: Candida albicans ATCC 10231
[3] = test system: Cryptococcus neoformans ATCC 34881
[4] = test system: Escherichia coli ATCC 27325
[5] = test system: Pseudomonas putida ATCC 17426
[6] = test system: Saccharomyces cerevisiae ATCC 44774
[7] = test system: Salmonella enterica subsp. enterica serovar Enteritidis ATCC 13076
[8] = test system: Staphylococcus aureus ATCC 15752
[9] = test system: Streptococcus mutans ATCC 25175
[10] = test system: Aspergillus flavus ATCC 46283
[11] = test system: Aspergillus fumigatus ATCC 16424
[12] = test system: Aspergillus niger ATCC 20611
[13] = test system: Campylobacter jejuni ATCC 43051
[14] = test system: Campylobacter jejuni
[15] = test system: Candida albicans ATCC 32354
[16] = test system: Escherichia coli ATCC 15224
[17] = test system: Escherichia coli
[18] = test system: Helicobacter pylori ATCC 43526
[19] = test system: Pseudomonas aeruginosa ATCC 90271
[20] = test system: Pseudomonas aeruginosa
[21] = test system: Saccharomyces cerevisiae ATCC 24860
[22] = test system: Salmonella enterica subsp. enterica serovar Typhimurium ATCC 13311
[23] = test system: Salmonella typhimurium
[24] = test system: Shigella flexneri ATCC 25875
[25] = test system: Shigella flexneri
[26] = test system: Shigella sonnei ATCC 25931
[27] = test system: Shigella sonnei
[28] = test system: Staphylococcus aureus ATCC 29213
[29] = test system: Staphylococcus aureus
[30] = test system: Streptococcus pyogenes ATCC 10389
[31] = test system: Streptococcus pyogenes
[32] = test system: Trichoderma viride ATCC 36316
[33] = test system: Bacillus subtilis ATCC 6633
[34] = test system: Escherichia coli ATCC 25922
[35] = test system: Klebsiella pneumoniae ATCC 10031
[36] = test system: Micrococcus luteus ATCC 10240
[37] = test system: Pseudomonas aeruginosa ATCC 27853
[38] = test system: Salmonella enterica subsp. enterica serovar Typhimurium ATCC 14028
[39] = test system: Shigella dysenteriae ATCC 9752
[40] = test system: Staphylococcus aureus ATCC 6538P
[41] = test system: Staphylococcus aureus TK784
[42] = test system: Staphylococcus epidermidis ATCC 12228
[43] = test system: Bacillus subtilis ATCC 1768
[44] = test system: Candida albicans ATCC 36232
[45] = test system: Corynebacterium diphtheriae ATCC 8024
[46] = test system: Corynebacterium diphtheriae ATCC 8032
[47] = test system: Escherichia coli ATCC 2592
[48] = test system: Micrococcus luteus ATCC 9341
[49] = test system: Proteus vulgaris ATCC 6380
[50] = test system: Pseudomonas aeruginosa ATCC 9027
[51] = test system: Shigella flexneri ATCC 203
[52] = test system: Staphylococcus aureus ATCC 6538
[53] = test system: Staphylococcus aureus SG501
[54] = test system: Streptococcus pyogenes 308A
[55] = test system: Streptococcus pyogenes 77A

CC(C)[C@H](NC(=O)[C@H](CCCCN)NC(=O)CNC(=O)CNC(=O)[C@H](CCC(N)=O)NC(=O)[C@H](CCCCN)NC(=O)CNC(=O)[C@H](CCCN=C(N)N)NC(=O)CN)C(=O)N[C@@H](CCCN=C(N)N)C(=O)N[C@@H](C)C(=O)N[C@@H](CCCCN)C(=O)N[C@@H](C)C(=O)N[C@@H](CCCCN)C(=O)N[C@H](C(=O)N[C@@H](CCCN=C(N)N)C(=O)N[C@@H](CO)C(=O)N[C@@H](CO)C(=O)O)[C@@H](C)O [GRGKQGGKVRAKAKTRSS]
MIC [1]: ≥ 68.4 µM
MIC [2]: > 68.4 µM
MIC [3]: ≥ 68.4 µM
MIC [4]: ≥ 68.4 µM
MIC [5]: ≥ 68.4 µM
MIC [6]: ≥ 68.4 µM
MIC [7]: ≥ 68.4 µM
MIC [8]: ≥ 68.4 µM
MIC [9]: ≥ 68.4 µM

CC[C@H](C)[C@H](NC(=O)CNC(=O)[C@H](CCC(N)=O)NC(=O)CNC(=O)[C@@H](NC(=O)[C@H](CCCCN)NC(=O)[C@H](CCC(=O)O)NC(=O)[C@@H](NC(=O)[C@H](CCCCN)NC(=O)[C@H](CCCCN)NC(=O)[C@H](Cc1ccccc1)NC(=O)[C@H](CC(C)C)NC(=O)[C@H](CCCCN)NC(=O)[C@H](Cc1c[nH]c2ccccc12)NC(=O)[C@@H](N)CCCCN)[C@@H](C)CC)C(C)C)C(=O)NCC(=O)N[C@@H](C)C(=O)N[C@H](C(=O)N[C@@H](CC(C)C)C(=O)N[C@@H](CCCCN)C(=O)N[C@H](C(=O)N[C@@H](CC(C)C)C(=O)N[C@H](C(=O)N[C@H](C(=O)NCC(=O)N[C@@H](CC(C)C)C(N)=O)[C@@H](C)O)[C@@H](C)O)C(C)C)C(C)C [KWKLFKKIEKVGQGIGAVLKVLTTGL]
MIC [10]: 3.71 µM (≈ 10.6 µg/mL)
MIC [11]: 3.68 µM (≈ 10.5 µg/mL)
MIC [12]: 3.15 µM (≈ 9 µg/mL)
MIC [13]: 1.4 µM (≈ 4 µg/mL)
MIC [14]: 1.54 µM (≈ 4.4 µg/mL)
MIC [15]: 3.96 µM (≈ 11.3 µg/mL)
MIC [16]: 1.3 µM (≈ 3.7 µg/mL)
MIC [17]: 1.26 µM (≈ 3.6 µg/mL)
MIC [18]: 1.61 µM (≈ 4.6 µg/mL)
MIC [19]: 1.54 µM (≈ 4.4 µg/mL)
MIC [20]: 1.33 µM (≈ 3.8 µg/mL)
MIC [21]: 4.97 µM (≈ 14.2 µg/mL)
MIC [22]: 1.72 µM (≈ 4.9 µg/mL)
MIC [23]: 1.54 µM (≈ 4.4 µg/mL)
MIC [24]: 1.47 µM (≈ 4.2 µg/mL)
MIC [25]: 1.65 µM (≈ 4.7 µg/mL)
MIC [26]: 1.58 µM (≈ 4.5 µg/mL)
MIC [27]: 1.65 µM (≈ 4.7 µg/mL)
MIC [28]: 2.56 µM (≈ 7.3 µg/mL)
MIC [29]: 3.01 µM (≈ 8.6 µg/mL)
MIC [30]: 2.63 µM (≈ 7.5 µg/mL)
MIC [31]: 2.7 µM (≈ 7.7 µg/mL)
MIC [32]: 4.62 µM (≈ 13.2 µg/mL)

CC(C)C[C@H](NC(=O)[C@H](Cc1c[nH]c2ccccc12)NC(=O)[C@H](CCCCN)NC(=O)[C@H](CC(C)C)NC(=O)[C@H](CC(C)C)NC(=O)[C@H](Cc1c[nH]c2ccccc12)NC(=O)[C@H](CCCCN)NC(=O)[C@@H](N)CC(C)C)C(=O)N[C@@H](CCCCN)C(N)=O [LKWLLKWLK]
MIC [33]: 4.07 µM (≈ 5 µg/mL)
MIC [34]: 4.07 µM (≈ 5 µg/mL)
MIC [35]: 16.3 µM (≈ 20 µg/mL)
MIC [36]: 8.15 µM (≈ 9.99 µg/mL)
MIC [37]: 32.6 µM (≈ 40 µg/mL)
MIC [38]: 32.6 µM (≈ 40 µg/mL)
MIC [39]: ≥ 32.6 µM
MIC [40]: 2.04 µM (≈ 2.5 µg/mL)
MIC [41]: 16.3 µM (≈ 20 µg/mL)
MIC [42]: 4.07 µM (≈ 5 µg/mL)

CC[C@H](C)[C@@H]1NC(=O)[C@H](CC(=O)O)NC(=O)[C@@H](NC(=O)[C@@H](NC(=O)[C@@H](N)C(C)C)[C@@H](C)O)CSSC[C@@H]2NC(=O)[C@H](Cc3ccc(O)cc3)NC(=O)CNC(=O)CNC(=O)[C@H](CO)NC(=O)[C@H](CCCN=C(N)N)NC(=O)CNC(=O)[C@H](CCCN=C(N)N)NC(=O)[C@H](Cc3ccccc3)NC(=O)[C@H](CC(C)C)NC(=O)[C@@H]3CSSC[C@@H](C(=O)N[C@@H](CCCN=C(N)N)C(=O)O)NC(=O)[C@H](C(C)C)NC(=O)[C@H](CSSC[C@H](NC(=O)[C@H](C)NC(=O)[C@H](C)NC(=O)[C@H](CC(=O)O)NC(=O)[C@H](CC(N)=O)NC(=O)[C@H](CC(C)C)NC(=O)[C@H](CCCCN)NC(=O)[C@H](C(C)C)NC(=O)CNC(=O)[C@H](CCCCN)NC(=O)[C@H](C)NC(=O)[C@H](CCC(=O)O)NC(=O)[C@H](C(C)C)NC(=O)[C@H](CO)NC(=O)[C@H](CC(C)C)NC1=O)C(=O)N[C@@H](C)C(=O)N[C@@H](C)C(=O)N[C@@H](Cc1cnc[nH]1)C(=O)N3)NC(=O)[C@H](C(C)C)NC(=O)[C@H](CCCN=C(N)N)NC(=O)[C@H](CCCCN)NC(=O)CNC(=O)[C@H](CC(N)=O)NC2=O [VTCDILSVEAKGVKLNDAACAAHCLFRGRSGGYCNGKRVCVCR]
MIC [43]: 0.44 µM
MIC [33]: 0.22 µM
MIC [44]: 22 µM
MIC [45]: 1.76 µM
MIC [46]: 1.32 µM
MIC [47]: 22 µM
MIC [36]: 1.1 µM
MIC [48]: 0.686 µM and 1.76 µM
MIC [49]: 6.6 µM
MIC [50]: > 22 µM
MIC [51]: 6.6 µM
MIC [52]: 1.38 µM
MIC [53]: 0.176 µM
MIC [29]: 5.5 µM
MIC [42]: 1.76 µM
MIC [54]: 0.352 µM
MIC [55]: 0.22 µM
